From patent US7959951B2, “Nitric oxide and its biomedical significance” (The Research Foundation at State University of New York, priority 2002, dated 2011)

System: E. coli bacteria
Assay: Inhibition of bacterial growth in LB broth culture
Format: cell-based
Conditions: One μg/ml in LB broth, 37° C, streaked on LB-agar
Procedure: A dried, powdered, formulation of a 1:1 mixture of the wheat grass extract and white willow bark extract prepared in Example 1 above was tested for its ability to inhibit bacterial growth in culture. The formulation was reconstituted in 10 ml of LB broth (Amersham Biosciences, Inc.). The broth was then inoculated with E. coli bacteria and incubated for 5 and 24 hours at 37° C. 20 μl of the cultures were streaked on LB-agar plates and incubated overnight at 37° C. […] An additional control experiment was conducted with the known antibacterial agent, SNAP. One μg/ml SNAP was added to LB broth. The broth was then inoculated with E. coli bacteria and incubated for 5 and 24 hours at 37° C. 20 μl of the cultures were streaked on LB-agar plates and incubated overnight at 37° C. Bacterial growth was decreased in the SNAP culture at 5 and 24 hours, as compared to the control.

CC(=O)N[C@@H](C(=O)O)C(C)(C)SN=O (racemic) [SNAP]
bacterial growth at 5 and 24 hours compared to control: decreased
